Measurements as given in patent US20240101576A1, “HETEROCYCLIC INHIBITORS OF EGFR AND/OR HER2, FOR USE IN THE TREATMENT OF CANCER” (Scorpion Therapeutics, Inc., priority 2020, published 2024).
pIC50: −log10 of the molar value.

What was measured:
Type in all cases: cell-based
[1] = molecular target: T1, EGFR L858R/C797S (Ba/F3 cells) (Homo sapiens, UniProt P00533, C797S/L858R); assay: Inhibitor activity on EGFR-dependent cell growth (CellTiter-Glo, 72 h), Ba/F3 EGFR L858R/C797S; conditions: read-out: BaF3 L858R/C797S IC50
T1 construct: expressed in transfected cells; host or cells: Ba/F3 (murine pro-B cells), retroviral transduction, puromycin selection, IL3-independent pool
T1 sequence (P00533 25-1210 C797S/L858R): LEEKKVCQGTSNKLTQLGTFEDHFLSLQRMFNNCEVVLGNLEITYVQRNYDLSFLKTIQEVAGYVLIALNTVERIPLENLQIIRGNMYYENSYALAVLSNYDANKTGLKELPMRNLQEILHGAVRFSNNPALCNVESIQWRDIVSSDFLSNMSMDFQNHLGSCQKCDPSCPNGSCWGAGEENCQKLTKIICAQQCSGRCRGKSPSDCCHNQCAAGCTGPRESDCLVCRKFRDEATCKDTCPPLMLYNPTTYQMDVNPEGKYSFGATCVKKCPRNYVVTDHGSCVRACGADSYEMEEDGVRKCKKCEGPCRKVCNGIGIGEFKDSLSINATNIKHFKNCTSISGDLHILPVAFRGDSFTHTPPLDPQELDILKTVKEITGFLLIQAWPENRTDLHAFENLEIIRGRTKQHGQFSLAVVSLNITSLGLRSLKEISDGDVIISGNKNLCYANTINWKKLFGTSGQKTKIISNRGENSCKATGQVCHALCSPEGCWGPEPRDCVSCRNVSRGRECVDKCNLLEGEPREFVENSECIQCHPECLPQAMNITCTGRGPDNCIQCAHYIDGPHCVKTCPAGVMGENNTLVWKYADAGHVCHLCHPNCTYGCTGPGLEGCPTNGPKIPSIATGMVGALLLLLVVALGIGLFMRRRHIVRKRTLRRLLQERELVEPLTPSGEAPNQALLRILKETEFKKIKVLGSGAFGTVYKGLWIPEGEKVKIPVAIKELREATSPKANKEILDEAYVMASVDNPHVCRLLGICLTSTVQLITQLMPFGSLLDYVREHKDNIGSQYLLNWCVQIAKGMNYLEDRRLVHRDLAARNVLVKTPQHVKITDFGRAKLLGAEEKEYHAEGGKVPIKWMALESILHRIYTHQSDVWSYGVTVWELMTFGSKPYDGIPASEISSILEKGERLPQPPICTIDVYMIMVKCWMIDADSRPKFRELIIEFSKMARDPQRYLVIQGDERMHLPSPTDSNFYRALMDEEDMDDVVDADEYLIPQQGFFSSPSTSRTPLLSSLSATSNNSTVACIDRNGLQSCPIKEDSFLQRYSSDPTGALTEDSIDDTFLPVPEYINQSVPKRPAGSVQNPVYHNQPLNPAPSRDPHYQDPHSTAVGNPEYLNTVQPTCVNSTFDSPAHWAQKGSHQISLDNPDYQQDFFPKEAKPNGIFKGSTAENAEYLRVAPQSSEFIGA
Text: (§1) Example A. Inhibitor Activity on EGFR-Dependent Cell Growth
(§2) Cell lines are generated by transducing Ba/F3 cells with retroviruses containing vectors with EGFR WT, EGFR L858R, EGFR exon 19del, EGFR L858R/C797S, EGFR exon 20 NPG Ins D770_N771, EGFR exon 20 ASV Ins V769_D770, EGFR exon 20 SVD Ins D770_N771, or EGFR exon 20 FQEA Ins A763_V764 genes and a puromycin selection marker. Transduced cells are selected with puromycin for 7 days and are then be transferred into culture media without Interleukin 3 (IL3). EGFR WT cells are maintained with supplemental EGF. Surviving cells are confirmed to express EGFR by Western blot and maintained as a pool. The IC50 date were included in Table 6 and Table 7.
(§3) 1.1 Cells are harvested from flask into cell culture medium and the cell number counted.
(§4) 1.2 Cells are diluted with culture medium to the desired density and 40 μL of cell suspension is added into each well of 384-well cell culture plate and the seeding density is 800 (FQEA, exon 19del), 600 (WT, NPG, L858R/C797S), or 400 (ASV, SVD, L858R) cells/well.
(§5) 2 Compound Preparation and Treatment
(§6) 2.1 Test compounds are dissolved to 10 mM in a DMSO stock solution. 45 μL of stock solution is transferred to a 384 polypropylene plate (pp-plate). Perform 3-fold, 10-point dilution via transferring 15 μL compound into 30 μL DMSO using a TECAN (EVO200) liquid handler.
(§7) 2.2 Spin plates at room temperature at 1,000 RPM for 1 minute.
(§8) 2.3 Transfer 120 nL of diluted compound from compound source plate into the cell plate.
(§9) 2.4 After compound treatment for 72 hours, perform CTG detection for compound treatment plates as described in “Detection” section.
(§10) 3.1 Plates are removed from incubators and equilibrated at room temperature for 15 minutes.
(§11) 3.2 Thaw the CellTiter Glo reagents and allow to equilibrate to room temperature before the experiment.
(§12) 3.3 Add 40 μL of CellTiter-Glo reagent into each well (at 1:1 to culture medium). Then place the plates at room temperature for 30 min followed by reading on EnVision.
(§13) 4.1 Inhibition activity is calculated following the formula below:
(§14) % Inhibition=100×(LumHC−LumSample)/(LumHC−LumLC) • where HC is obtained from cells treated with 0.1% DMSO only; and LC is obtained from culture medium only.
(§15) 4.2 2. Calculate the IC50 by fitting the Curve using Xlfit (v5.3.1.3), equation 201.
(§16) Y=Bottom+(Top−Bottom)/(1+10^((Log IC50−X)*HillSlope))

[2] = molecular target: T1, EGFR L858R/C797S (Ba/F3 cells); assay: Inhibitor activity on EGFR phosphorylation (pEGFR AlphaLISA, 2 h), Ba/F3 EGFR L858R/C797S
Text: (§17) Example B. Inhibitor Activity on EGFR phosphorylation (pEGFR)
(§18) EGFR mutant Ba/F3 cells were generated by transduction with retrovirus containing vectors expressing EGFR L858R, EGFR exon 19del, EGFR L858R/C797S, EGFR exon 20 NPG Ins D770_N771, EGFR exon 20 ASV Ins V769_D770, or EGFR exon 20 SVD Ins D770_N771 genes along with a puromycin selection marker. Transduced cells are selected with puromycin for 7 days and are then be transferred into culture media without Interleukin 3 (IL3). Surviving cells are confirmed to express EGFR by Western blot and maintained as a pool. CUTO14 cells were obtained from Dr. Robert C. Doebele at the University of Colorado. The IC50 date are included in Table 6 and Table 7.
as §3
(§19) 1.2 Cells are diluted with culture medium to the desired density and 40 μL of cell suspension is added into each well of 384-well cell culture plate and the seeding density is 50K cells/well (Ba/F3) or 12.5K cells/well (CUTO14).
as §5, §6, §7
(§20) 2.3 Transfer 5 nL of diluted compound from compound source plate into the cell plate.
(§21) 2.4 After compound treatment for 2 hours, perform pEGFR detection by AlphaLISA for compound treatment plates as described in “Detection” section.
(§22) 3 Detection by pEGFR AlphaLISA (Perkin-Elmer)
(§23) 3.1 Plates are removed from incubators and equilibrated at room temperature for 10 minutes, and media was removed
(§24) 3.2 10 μL of lysis buffer is added and plates shaken at 600 rpm for 1 hr.
(§25) 3.3 Prepare acceptor mix just before use and dispense 5 μL of acceptor mix to all the wells. Shake 350 rpm for Ihr in the dark
(§26) 3.4 Prepare donor mix under low light conditions prior to use. Dispense 5 μL of donor mix to all the wells. Mix well on the shaker, seal and wrap in aluminum foil and incubate 1.5 hrs at room temperature in the dark
(§27) 3.5 Transfer 18.5 μL mixture to OptiPlate 384, and read using an Envision. The IC50 date were included in Table 6 and Table 7.

[3] = molecular target: T2, EGFR WT (Ba/F3 cells) (Homo sapiens, UniProt P00533); assay: Inhibitor activity on EGFR-dependent cell growth (CellTiter-Glo, 72 h), Ba/F3 EGFR WT; conditions: read-out: BaF3 WT IC50
T2 construct: expressed in transfected cells; host or cells: Ba/F3 (murine pro-B cells), retroviral transduction, puromycin selection, maintained with EGF
Method in brief: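 This growth assay used Ba/F3 cells that depend on wild-type EGFR and are kept in EGF without IL3. Compounds were made up as 10 mM DMSO stocks and diluted 3-fold over 10 points. 120 nL went onto 600 cells/well. After 72 hours, 40 μL CellTiter-Glo was added and luminescence read on EnVision after 30 min.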

[4] = molecular target: T3, EGFR exon 20 NPG Ins D770_N771 (Ba/F3 cells) (Homo sapiens, UniProt P00533, INS770NPG); assay: Inhibitor activity on EGFR-dependent cell growth (CellTiter-Glo, 72 h), Ba/F3 EGFR exon 20 NPG Ins; conditions: read-out: BaF3 NPG IC50
T3 construct: expressed in transfected cells; host or cells: Ba/F3 (murine pro-B cells), retroviral transduction, puromycin selection, IL3-independent pool
Method in brief: (§28)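 IC50s derive from a sigmoidal dose–response fit of CellTiter-Glo signal. The signal was normalised between […]-treated cells and cell-free medium. Ba/F3 mutant-EGFR cells, seeded at 400–800/well depending on the line, had 72 h of exposure to a 10-point, 3-fold compound series.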

[5] = molecular target: T4, EGFR exon 20 ASV Ins V769_D770 (Ba/F3 cells) (Homo sapiens, UniProt P00533, INS769ASV); assay: Inhibitor activity on EGFR-dependent cell growth (CellTiter-Glo, 72 h), Ba/F3 EGFR exon 20 ASV Ins; conditions: read-out: BaF3 ASV IC50
T4 construct: expressed in transfected cells; host or cells: Ba/F3 (murine pro-B cells), retroviral transduction, puromycin selection, IL3-independent pool
Method in brief: as §28

[6] = molecular target: T5, EGFR exon 20 SVD Ins D770_N771 (Ba/F3 cells) (Homo sapiens, UniProt P00533, INS770SVD); assay: Inhibitor activity on EGFR-dependent cell growth (CellTiter-Glo, 72 h), Ba/F3 EGFR exon 20 SVD Ins; conditions: read-out: BaF3 SVD IC50
T5 construct: expressed in transfected cells; host or cells: Ba/F3 (murine pro-B cells), retroviral transduction, puromycin selection, IL3-independent pool
T5 sequence (P00533 with tags, fused parts or gaps INS770SVD): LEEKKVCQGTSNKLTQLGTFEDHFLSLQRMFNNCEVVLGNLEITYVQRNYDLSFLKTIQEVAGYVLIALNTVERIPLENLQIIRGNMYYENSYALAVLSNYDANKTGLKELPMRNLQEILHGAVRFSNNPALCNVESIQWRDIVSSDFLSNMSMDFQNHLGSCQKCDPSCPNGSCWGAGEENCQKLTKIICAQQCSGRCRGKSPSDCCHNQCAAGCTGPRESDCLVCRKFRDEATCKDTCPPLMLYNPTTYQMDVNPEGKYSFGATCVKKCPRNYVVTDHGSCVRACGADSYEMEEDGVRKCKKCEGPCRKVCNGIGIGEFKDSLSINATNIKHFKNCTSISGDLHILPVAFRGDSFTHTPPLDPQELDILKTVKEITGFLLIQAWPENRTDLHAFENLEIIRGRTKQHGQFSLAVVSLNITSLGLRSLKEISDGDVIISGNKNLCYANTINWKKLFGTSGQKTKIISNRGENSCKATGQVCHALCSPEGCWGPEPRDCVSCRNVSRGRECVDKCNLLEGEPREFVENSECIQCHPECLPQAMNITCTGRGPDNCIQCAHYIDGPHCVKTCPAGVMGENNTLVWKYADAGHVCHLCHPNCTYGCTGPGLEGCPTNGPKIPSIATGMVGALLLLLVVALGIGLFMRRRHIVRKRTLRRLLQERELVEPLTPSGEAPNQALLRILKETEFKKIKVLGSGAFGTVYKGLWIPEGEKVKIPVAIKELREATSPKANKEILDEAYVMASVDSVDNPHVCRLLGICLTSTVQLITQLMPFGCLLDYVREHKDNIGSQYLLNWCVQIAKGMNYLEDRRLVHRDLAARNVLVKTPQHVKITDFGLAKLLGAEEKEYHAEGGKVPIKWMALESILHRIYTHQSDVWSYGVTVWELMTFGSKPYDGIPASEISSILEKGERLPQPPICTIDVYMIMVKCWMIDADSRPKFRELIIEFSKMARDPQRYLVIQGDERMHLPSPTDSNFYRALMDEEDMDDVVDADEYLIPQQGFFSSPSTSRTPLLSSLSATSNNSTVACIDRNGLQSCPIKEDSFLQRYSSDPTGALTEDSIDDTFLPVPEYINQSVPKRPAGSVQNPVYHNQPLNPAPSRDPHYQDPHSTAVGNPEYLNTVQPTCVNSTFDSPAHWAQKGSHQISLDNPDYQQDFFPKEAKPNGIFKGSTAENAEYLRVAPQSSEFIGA
Method in brief: as §28

[7] = molecular target: EGFR (CUTO14 cells) (Homo sapiens, UniProt P00533); assay: Inhibitor activity on EGFR phosphorylation (pEGFR AlphaLISA, 2 h), CUTO14 cells
Chain of EGFR (CUTO14 cells) (P00533 with tags, fused parts or gaps DUP767-769): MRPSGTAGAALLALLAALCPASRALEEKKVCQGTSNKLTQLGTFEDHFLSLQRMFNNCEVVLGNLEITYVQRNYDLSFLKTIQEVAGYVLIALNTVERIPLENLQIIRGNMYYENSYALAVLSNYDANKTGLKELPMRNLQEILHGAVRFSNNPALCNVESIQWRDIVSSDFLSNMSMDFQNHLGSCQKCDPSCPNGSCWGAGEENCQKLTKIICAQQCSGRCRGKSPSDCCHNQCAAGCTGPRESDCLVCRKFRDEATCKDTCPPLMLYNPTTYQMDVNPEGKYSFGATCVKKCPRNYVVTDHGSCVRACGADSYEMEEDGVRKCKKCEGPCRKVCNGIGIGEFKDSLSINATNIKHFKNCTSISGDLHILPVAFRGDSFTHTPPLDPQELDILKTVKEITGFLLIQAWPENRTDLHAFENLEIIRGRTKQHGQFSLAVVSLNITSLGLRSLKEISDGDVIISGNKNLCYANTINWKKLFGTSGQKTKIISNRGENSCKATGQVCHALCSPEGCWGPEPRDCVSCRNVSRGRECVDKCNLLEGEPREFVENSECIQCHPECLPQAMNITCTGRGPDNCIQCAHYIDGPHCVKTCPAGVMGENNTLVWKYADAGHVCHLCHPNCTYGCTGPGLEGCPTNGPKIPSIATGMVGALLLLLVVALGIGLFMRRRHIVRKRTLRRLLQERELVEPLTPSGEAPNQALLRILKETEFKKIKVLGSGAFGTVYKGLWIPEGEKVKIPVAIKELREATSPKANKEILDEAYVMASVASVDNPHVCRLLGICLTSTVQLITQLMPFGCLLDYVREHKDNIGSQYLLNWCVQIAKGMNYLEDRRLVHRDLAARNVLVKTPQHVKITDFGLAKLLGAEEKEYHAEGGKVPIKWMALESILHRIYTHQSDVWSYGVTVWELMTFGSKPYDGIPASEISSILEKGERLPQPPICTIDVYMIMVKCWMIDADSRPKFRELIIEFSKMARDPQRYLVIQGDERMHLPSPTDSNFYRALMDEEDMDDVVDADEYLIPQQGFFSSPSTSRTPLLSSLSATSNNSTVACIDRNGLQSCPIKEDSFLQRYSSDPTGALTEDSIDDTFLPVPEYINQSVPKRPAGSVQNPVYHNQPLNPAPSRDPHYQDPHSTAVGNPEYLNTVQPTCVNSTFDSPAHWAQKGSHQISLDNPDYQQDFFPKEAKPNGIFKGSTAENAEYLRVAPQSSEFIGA
Text: as §17, §18, §3, §19, §5, §6, §7, §20, §21, §22, §23, §24, §25, §26, §27

[8] = molecular target: T6, EGFR L858R (Ba/F3 cells) (Homo sapiens, UniProt P00533, L858R); assay: Inhibitor activity on EGFR-dependent cell growth (CellTiter-Glo, 72 h), Ba/F3 EGFR L858R; conditions: read-out: BaF3 L858R IC50
T6 construct: expressed in transfected cells; host or cells: Ba/F3 (murine pro-B cells), retroviral transduction, puromycin selection, IL3-independent pool
T6 sequence (P00533 25-1210 L858R): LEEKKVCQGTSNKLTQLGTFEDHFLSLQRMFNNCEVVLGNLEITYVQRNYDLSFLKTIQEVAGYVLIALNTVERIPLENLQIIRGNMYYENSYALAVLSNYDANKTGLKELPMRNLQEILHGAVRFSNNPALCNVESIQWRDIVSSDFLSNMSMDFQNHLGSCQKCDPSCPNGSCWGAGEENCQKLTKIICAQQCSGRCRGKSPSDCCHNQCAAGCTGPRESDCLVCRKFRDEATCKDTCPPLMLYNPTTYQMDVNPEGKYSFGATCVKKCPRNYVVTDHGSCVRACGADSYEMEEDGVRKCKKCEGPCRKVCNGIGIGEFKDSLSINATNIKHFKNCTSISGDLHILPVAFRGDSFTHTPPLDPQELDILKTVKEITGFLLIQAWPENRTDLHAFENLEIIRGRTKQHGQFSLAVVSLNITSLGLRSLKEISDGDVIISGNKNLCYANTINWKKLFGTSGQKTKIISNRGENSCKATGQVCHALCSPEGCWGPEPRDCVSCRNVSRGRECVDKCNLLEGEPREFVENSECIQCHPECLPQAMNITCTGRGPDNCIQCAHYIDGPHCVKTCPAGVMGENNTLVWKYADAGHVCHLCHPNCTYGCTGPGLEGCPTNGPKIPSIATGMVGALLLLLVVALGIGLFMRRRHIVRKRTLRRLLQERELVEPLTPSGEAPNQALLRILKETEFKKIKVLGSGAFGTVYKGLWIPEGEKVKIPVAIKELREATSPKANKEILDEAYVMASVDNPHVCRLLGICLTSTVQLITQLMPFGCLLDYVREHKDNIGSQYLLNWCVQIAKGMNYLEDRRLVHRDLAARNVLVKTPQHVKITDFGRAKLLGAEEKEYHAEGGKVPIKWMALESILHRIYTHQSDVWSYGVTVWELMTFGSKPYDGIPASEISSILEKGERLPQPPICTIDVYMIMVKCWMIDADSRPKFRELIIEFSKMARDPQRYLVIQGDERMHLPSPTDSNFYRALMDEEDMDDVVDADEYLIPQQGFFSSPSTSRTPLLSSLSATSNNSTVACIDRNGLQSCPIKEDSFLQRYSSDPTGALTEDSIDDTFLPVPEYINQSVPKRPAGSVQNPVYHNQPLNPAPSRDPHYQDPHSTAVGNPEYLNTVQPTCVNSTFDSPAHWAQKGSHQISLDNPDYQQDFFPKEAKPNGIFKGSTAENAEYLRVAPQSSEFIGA
Text: as §1, §2, §3, §4, §5, §6, §7, §8, §9, §10, §11, §12, §13, §14, §15, §16

[9] = molecular target: EGFR exon 19del (Ba/F3 cells) (Homo sapiens, UniProt P00533); assay: Inhibitor activity on EGFR-dependent cell growth (CellTiter-Glo, 72 h), Ba/F3 EGFR exon 19del; conditions: Ba/F3 EGFR exon 19del cell growth, read-out: BaF3 Del19 IC50
Text: as §1, §2, §3, §4, §5, §6, §7, §8, §9, §10, §11, §12, §13, §14, §15, §16

Structure (SMILES): COc1c(Cl)cc(F)cc1Nc1c(-c2ccnc(C)n2)[nH]c2c1C(=O)NC[C@@H]2C[C@@H]1COCCO1 [compound 651]
- pIC50 [1]: > 7.00
- pIC50 [2]: > 7.00
- pIC50 [3]: 6.00 to 7.00
- pIC50 [4]: > 7.00
- pIC50 [5]: > 7.00
- pIC50 [6]: > 7.00
- pIC50 [7]: > 7.00

Structure (SMILES): COc1c(Cl)cccc1Nc1c(-c2ccnc(C)n2)[nH]c2c(C[C@@H]3COCCO3)c[nH]c(=O)c12 [compound 655, 3-[(3-chloro-2-methoxyphenyl)amino]-7-[(2R)-1,4-dioxan-2-ylmethyl]-2-(2-methylpyrimidin-4-yl)-1H,5H-pyrrolo[3,2-c]pyridin-4-one]
- pIC50 [8]: > 7.00
- pIC50 [9]: > 7.00
- pIC50 [3]: 6.00 to 7.00
- pIC50 [4]: > 7.00
- pIC50 [5]: > 7.00
- pIC50 [6]: > 7.00
- pIC50 [7]: > 7.00

Structure (SMILES): COc1c(Cl)cccc1Nc1c(-c2ccncn2)[nH]c2c(C[C@@H]3COCCO3)c[nH]c(=O)c12 [compound 656]
- pIC50 [8]: > 7.00
- pIC50 [9]: > 7.00
- pIC50 [3]: < 6.00
- pIC50 [4]: > 7.00
- pIC50 [5]: > 7.00
- pIC50 [6]: > 7.00
- pIC50 [7]: > 7.00

Structure (SMILES): COc1c(Cl)cccc1Nc1c(-c2ccncc2F)[nH]c2c(C[C@@H]3COCCO3)c[nH]c(=O)c12 [compound 657]
- pIC50 [8]: > 7.00
- pIC50 [9]: > 7.00
- pIC50 [1]: > 7.00
- pIC50 [2]: > 7.00
- pIC50 [3]: 6.00 to 7.00
- pIC50 [4]: > 7.00
- pIC50 [5]: > 7.00
- pIC50 [6]: > 7.00
- pIC50 [7]: > 7.00

Structure (SMILES): COc1c(F)cccc1Nc1c(-c2ccnc(C)n2)[nH]c2c(C[C@@H]3COCCO3)c[nH]c(=O)c12 [compound 658]
- pIC50 [8]: > 7.00
- pIC50 [9]: > 7.00
- pIC50 [1]: > 7.00
- pIC50 [2]: > 7.00
- pIC50 [3]: 6.00 to 7.00
- pIC50 [4]: > 7.00
- pIC50 [5]: > 7.00
- pIC50 [6]: > 7.00
- pIC50 [7]: > 7.00
